Values of other authors, collected in patent publication US20150283148A1, “ARRANGEMENT OF SPECIFIC ANTIDOTES WITH ALLOPATHIC MEDICINAL PREPARATIONS IN GENERAL SECONDARY PACKAGE” (priority 2014, published 2015).

Details: predicted by algorithm

## NS(=O)(=O)Cc1noc2ccccc12 [Zonisamide]
  predicted latent side effect: suicidal thoughts
